Measurements published in patent US9120791B2, “Indolizine compounds, a process for their preparation and pharmaceutical compositions containing them” (LES LABORATOIRES SERVIER, priority 2012, dated 2015).
Structures can show the parent of a compound that is named as a salt. Where two headings read alike, the source gives them in different places.

Key:
[1] = molecular target: Bcl-2 protein (Homo sapiens (Human), UniProt P10415); assay: Inhibition of Bcl-2 by the fluorescence polarisation technique; assay type: binding; conditions: read-out: IC50 (nM) Bcl-2 FP
Description: The fluorescence polarisation tests were carried out on microplates (384 wells). […] After incubation for 2 hours, the fluorescence polarisation is measured.

[2] = tested on: RS4;11 leukaemia tumour line; assay: In vitro cytotoxicity (Microculture Tetrazolium Assay, 48 hours); assay type: cell-based; conditions: RS4;11 cells, 48 hours exposure, MTT, concentration that inhibits cell viability by 50%, read-out: IC50 (nM) MTT RS4
Description: The cytotoxicity studies were carried out on the RS4;11 leukaemia tumour line.
The cells are distributed onto microplates and exposed to the test compounds for 48 hours.

[3] = fluorescence polarisation test, concentration that inhibits fluorescence polarisation by 50%

Sequence of Bcl-2 protein (P10415 whole entry): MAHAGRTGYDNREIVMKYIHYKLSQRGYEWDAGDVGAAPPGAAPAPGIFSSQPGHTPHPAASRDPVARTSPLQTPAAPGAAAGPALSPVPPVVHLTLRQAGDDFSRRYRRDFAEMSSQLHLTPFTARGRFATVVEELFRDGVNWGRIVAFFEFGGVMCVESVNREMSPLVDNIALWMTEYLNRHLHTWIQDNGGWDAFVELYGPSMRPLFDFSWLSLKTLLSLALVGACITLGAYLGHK

| Structure (SMILES) | IC50 [1, 3] [nM] | IC50 ([2]; Homo sapiens) [nM] | IC50 [1] [nM] | IC50 [2] [nM] |
| --- | --- | --- | --- | --- |
| Cn1ccc2cc(N(C(=O)c3cc(-c4cc5c(cc4C(=O)N4Cc6ccccc6C[C@H]4CN4CCCOCC4)OCO5)n4c3CCCC4)c3ccc(O)cc3)ccc21 [Example 14, N-(4-Hydroxyphenyl)-N-(1-methyl-1H-indol-5-yl)-3-{6-[((3S)-3-(1,4-oxazepan-4-ylmethyl)-3,4-dihydro-2(1H)-isoquinolinyl)carbonyl]-1,3-benzodioxol-5-yl}-5,6,7,8-tetrahydro-1-indolizine carboxamide hydrochloride] | 16 | 10.7 |  |  |
| CN1CCc2cc(N(C(=O)c3cc(-c4cc5c(cc4C(=O)N4Cc6ccccc6C[C@H]4CN4CCOCC4)OCO5)n4c3COCC4)c3ccc(O)cc3)ccc21 [Example 81, N-(4-Hydroxyphenyl)-N-(1-methyl-2,3-dihydro-1H-indol-5-yl)-6-{6-[((3S)-3-(4-morpholinylmethyl)-3,4-dihydro-2(1H)-isoquinolinyl)carbonyl]-1,3-benzodioxol-5-yl}-3,4-dihydro-1H-pyrrolo[2,1-c][1,4]oxazine-8-carboxamide hydrochloride] | 28 | 39.3 |  |  |
| Cc1ccc(N(C(=O)c2cc(-c3cc(F)ccc3C(=O)N3Cc4ccccc4C[C@H]3CN3CCOCC3)n3c2COCC3)c2ccc(O)cc2)cc1F [Example 98, N-(3-Fluoro-4-methylphenyl)-6-(5-fluoro-2-{[(3S)-3-(morpholin-4-ylmethyl)-3,4-dihydroisoquinolin-2(1H)-yl]carbonyl}phenyl)-N-(4-hydroxyphenyl)-3,4-dihydro-1H-pyrrolo[2,1-c][1,4]oxazine-8-carboxamide hydrochloride] | 12 | 73.5 |  |  |
| CN1CCN(C[C@@H]2Cc3ccccc3CN2C(=O)c2ccc(Cl)cc2-c2cc(C(=O)N(c3ccc(O)cc3)c3ccc4c(ccn4C)c3)c3n2CCCC3)CC1 [Example 30, 3-{5-Chloro-2-[((3S)-3-[(4-methyl-1-piperazinyl)methyl]-3,4-dihydro-2(1H)-isoquinolinyl)carbonyl]phenyl}-N-(4-hydroxyphenyl)-N-(1-methyl-1H-indol-5-yl)-5,6,7,8-tetrahydro-1-indolizine carboxamide bis(hydrochloride)] | 13 | 8.59 |  |  |
| C[C@@H]1COCCN1C[C@@H]1Cc2ccccc2CN1C(=O)c1cc2c(cc1-c1cc(C(=O)N(c3ccc(O)cc3)c3ccc4c(ccn4C)c3)c3n1CCCC3)OCO2 [Example 15, N-(4-Hydroxyphenyl)-N-(1-methyl-1H-indol-5-yl)-3-{6-[((3S)-3-{[(3R)-3-methylmorpholinyl]methyl}-3,4-dihydro-2(1H)-isoquinolinyl)carbonyl]-1,3-benzodioxol-5-yl}-5,6,7,8-tetrahydro-1-indolizine carboxamide hydrochloride] |  |  | 17 | 20.4 |
| COCCN1CCN(C[C@@H]2Cc3ccccc3CN2C(=O)c2cc3c(cc2-c2cc(C(=O)N(c4ccccc4)c4ccc(O)cc4)c4n2CCCC4)OCO3)CC1 [Example 105, N-(4-Hydroxyphenyl)-3-(6-{[(3S)-3-{[4-(2-methoxyethyl)piperazin-1-yl]methyl}-3,4-dihydroisoquinolin-2(1H)-yl]carbonyl}-1,3-benzodioxol-5-yl)-N-phenyl-5,6,7,8-tetrahydroindolizine-1-carboxamide bis(hydrochloride)] | 10 | 28.9 |  |  |
| CCN(CCOC)C[C@@H]1Cc2ccccc2CN1C(=O)c1ccc(Cl)cc1-c1cc(C(=O)N(c2ccc(O)cc2)c2ccc3c(ccn3C)c2)c2n1CCCC2 [Example 110, 3-(5-Chloro-2-{[(3S)-3-{[ethyl(2-methoxyethyl)amino]methyl}-3,4-dihydroisoquinolin-2(1H)-yl]carbonyl}phenyl)-N-(4-hydroxyphenyl)-N-(1-methyl-1H-indol-5-yl)-5,6,7,8-tetrahydroindolizine-1-carboxamide hydrochloride] | 29 | 129 |  |  |
| COCCN(C)C[C@@H]1Cc2ccccc2CN1C(=O)c1ccc(Cl)cc1-c1cc(C(=O)N(c2ccc(O)cc2)c2ccc3c(ccn3C)c2)c2n1CCCC2 [Example 108, 3-(5-Chloro-2-{[(3S)-3-{[(2-methoxyethyl)(methyl)amino]methyl}-3,4-dihydroisoquinolin-2(1H)-yl]carbonyl}phenyl)-N-(4-hydroxyphenyl)-N-(1-methyl-1H-indol-5-yl)-5,6,7,8-tetrahydroindolizine-1-carboxamide hydrochloride] | 9 | 36.4 |  |  |
| Cn1ccc2cc(N(C(=O)c3cc(-c4cc(C(F)(F)F)ccc4C(=O)N4Cc5ccccc5C[C@H]4CN4CCOCC4)n4c3CCCC4)c3ccc(O)cc3)ccc21 [Example 47, N-(4-Hydroxyphenyl)-N-(1-methyl-1H-indol-5-yl)-3-[2-[((3S)-3-(4-morpholinylmethyl)-3,4-dihydro-2(1H)-isoquinolinyl)carbonyl]-5-(trifluoromethyl)-phenyl]-5,6,7,8-tetrahydro-1-indolizine carboxamide hydrochloride] | 58 | 194 |  |  |

More lines, main results first:

| IC50 [1, 3] [nM] | Structure (SMILES) | IC50 ([2]; Homo sapiens) [nM] | IC50 [1] [nM] | IC50 [2] [nM] |
| --- | --- | --- | --- | --- |
| 33 | Cc1ccc(N(C(=O)c2cc(-c3cc(Cl)ccc3C(=O)N3Cc4ccccc4C[C@H]3CN3CCOCC3)n3c2COCC3)c2ccc(O)cc2)cc1F [Example 82, 6-{5-Chloro-2-[((3S)-3-(4-morpholinylmethyl)-3,4-dihydro-2(1H)-isoquinolinyl)carbonyl]phenyl}-N-(3-fluoro-4-methylphenyl)-N-(4-hydroxyphenyl)-3,4-dihydro-1H-pyrrolo[2,1-c][1,4]oxazine-8-carboxamide hydrochloride] | 21.9 |  |  |
| 180 | COc1ccc(N(C(=O)c2cc(-c3cc(Cl)ccc3C(=O)N3Cc4ccccc4C[C@H]3CN3CCOCC3)n3c2CCCC3)c2ccc(O)cc2)cc1C(F)(F)F [Example 53, 3-{5-Chloro-2-[((3S)-3-(4-morpholinylmethyl)-3,4-dihydro-2(1H)-isoquinolinyl)carbonyl]phenyl}-N-(4-hydroxyphenyl)-N-[4-methoxy-3-(trifluoro-methyl)phenyl]-5,6,7,8-tetrahydro-1-indolizine carboxamide hydrochloride] | 138 |  |  |
| 9 | N#Cc1ccc(N(C(=O)c2cc(-c3cc(Cl)ccc3C(=O)N3Cc4ccccc4C[C@H]3CN3CCOCC3)n3c2CCCC3)c2ccc(O)cc2)cc1 [Example 129, 3-(5-Chloro-2-{[(3S)-3-(morpholin-4-ylmethyl)-3,4-dihydroisoquinolin-2(1H)-yl]carbonyl}phenyl)-N-(4-cyanophenyl)-N-(4-hydroxyphenyl)-5,6,7,8-tetrahydroindolizine-1-carboxamide hydrochloride] | 46.7 |  |  |
| 47 | CN1CC2(CC2)c2cc(N(C(=O)c3cc(-c4cc(Cl)ccc4C(=O)N4Cc5ccccc5C[C@H]4CN4CCOCC4)n4c3CCCC4)c3ccc(O)cc3)ccc21 [Example 45, 3-{5-Chloro-2-[((3S)-3-(4-morpholinylmethyl)-3,4-dihydro-2(1H)-isoquinolinyl)carbonyl]phenyl}-N-(4-hydroxyphenyl)-N-(1′-methyl-1′,2′-dihydrospiro[cyclopropane-1,3′-indol]-5′-yl)-5,6,7,8-tetrahydro-1-indolizine carboxamide] | 76.8 |  |  |
| 7 | COc1ccc(C(=O)N2Cc3ccccc3C[C@H]2CN2CCOCC2)c(-c2cc(C(=O)N(c3ccc(O)cc3)c3ccc4c(cnn4C)c3)c3n2CCCC3)c1 [Example 104, N-(4-Hydroxyphenyl)-3-(5-methoxy-2-{[(3S)-3-(morpholin-4-ylmethyl)-3,4-dihydroisoquinolin-2(1H)-yl]carbonyl}phenyl)-N-(1-methyl-1H-indazol-5-yl)-5,6,7,8-tetrahydroindolizine-1-carboxamide hydrochloride] | 21.6 |  |  |
| 22 | O=C(c1cc(-c2cc(Cl)ccc2C(=O)N2Cc3ccccc3C[C@H]2CN2CCOCC2)n2c1CCCC2)N(c1ccc(O)cc1)c1ccc2c(c1)CCN2 [Example 21, 3-{5-Chloro-2-[((3S)-3-(4-morpholinylmethyl)-3,4-dihydro-2(1H)-isoquinolinyl)carbonyl]phenyl}-N-(2,3-dihydro-1H-indol-5-yl)-N-(4-hydroxyphenyl)-5,6,7,8-tetrahydro-1-indolizine carboxamide bis(hydrochloride)] | 34.6 |  |  |
| 8 | O=C(c1cc(-c2cc(Cl)ccc2C(=O)N2Cc3ccccc3C[C@H]2CN2CCOCC2)n2c1CCCC2)N(c1ccc(O)cc1)c1ccccc1F [Example 115, 3-(5-Chloro-2-{[(3S)-3-(morpholin-4-ylmethyl)-3,4-dihydroisoquinolin-2(1H)-yl]carbonyl}phenyl)-N-(2-fluorophenyl)-N-(4-hydroxyphenyl)-5,6,7,8-tetrahydroindolizine-1-carboxamide hydrochloride] | 58.1 |  |  |
| 41 | O=C(c1cc(-c2cc(Cl)ccc2C(=O)N2Cc3ccccc3C[C@H]2CN2CCOCC2)n2c1CCCC2)N(c1ccc(O)cc1)c1ccsc1 [Example 85, 3-{5-Chloro-2-[((3S)-3-(4-morpholinylmethyl)-3,4-dihydro-2(1H)-isoquinolinyl)carbonyl]phenyl}-N-(4-hydroxyphenyl)-N-(3-thienyl)-5,6,7,8-tetrahydro-1-indolizine carboxamide hydrochloride] | 246 |  |  |
| 17 | CN1CCOc2cc(N(C(=O)c3cc(-c4cc(Cl)ccc4C(=O)N4Cc5ccccc5C[C@H]4CN4CCOCC4)n4c3CCCC4)c3ccc(O)cc3)ccc21 [Example 27, 3-{5-Chloro-2-[((3S)-3-(4-morpholinylmethyl)-3,4-dihydro-2(1H)-isoquinolinyl)carbonyl]phenyl}-N-(4-hydroxyphenyl)-N-(4-methyl-3,4-dihydro-2H-1,4-benzoxazin-7-yl)-5,6,7,8-tetrahydro-1-indolizine carboxamide hydrochloride] | 35.4 |  |  |
